Measured values published in the NIST ThermoML archive (doi:10.1016/j.jct.2013.09.020).
Numbers after ± are expanded uncertainties.

Details: Liquid, Calculated from knudsen effusion weight loss

Cn1cc[n+](C)c1.O=S(=O)([N-]S(=O)(=O)C(F)(F)F)C(F)(F)F [1,3-dimethylimidazolium bis((trifluoromethyl)sulfonyl)amide]
Details	vapor or sublimation pressure [kPa]
475.62 K	4.15e-05 ± 3.5e-06
477.6 K	4.7e-05 ± 3.6e-06
479.6 K	5.33e-05 ± 3.7e-06
481.59 K	6.01e-05 ± 3.8e-06
483.59 K	6.78e-05 ± 4.2e-06
485.6 K	7.63e-05 ± 4.7e-06
487.6 K	8.56e-05 ± 5.3e-06
489.62 K	9.57e-05 ± 5.9e-06
491.67 K	0.0001095 ± 6.7e-06
493.68 K	0.0001225 ± 7.5e-06

CCC[n+]1ccn(CC)c1.O=S(=O)([N-]S(=O)(=O)C(F)(F)F)C(F)(F)F
Details	vapor or sublimation pressure [kPa]
463.58 K	4.86e-05 ± 3.6e-06
465.61 K	5.55e-05 ± 3.7e-06
467.59 K	6.29e-05 ± 3.9e-06
469.6 K	7.12e-05 ± 4.4e-06
471.62 K	8.07e-05 ± 5e-06
473.62 K	9.11e-05 ± 5.6e-06
475.62 K	0.0001034 ± 6.3e-06
477.63 K	0.0001172 ± 7.2e-06
479.56 K	0.0001311 ± 8e-06
481.58 K	0.0001487 ± 9.1e-06
483.6 K	0.0001651 ± 1e-05
485.61 K	0.0001872 ± 1.2e-05
487.62 K	0.0002112 ± 1.3e-05
489.62 K	0.0002364 ± 1.5e-05
